{
  "source": "paper PMC11042424",
  "about": "“Development of a First-in-Class RIPK1 Degrader to Enhance Antitumor Immunity” (Research Square, 2024)",
  "molecular_target": "T1, RIPK1 (Mus musculus, UniProt Q60855)",
  "T1 sequence (Q60855 1-656)": "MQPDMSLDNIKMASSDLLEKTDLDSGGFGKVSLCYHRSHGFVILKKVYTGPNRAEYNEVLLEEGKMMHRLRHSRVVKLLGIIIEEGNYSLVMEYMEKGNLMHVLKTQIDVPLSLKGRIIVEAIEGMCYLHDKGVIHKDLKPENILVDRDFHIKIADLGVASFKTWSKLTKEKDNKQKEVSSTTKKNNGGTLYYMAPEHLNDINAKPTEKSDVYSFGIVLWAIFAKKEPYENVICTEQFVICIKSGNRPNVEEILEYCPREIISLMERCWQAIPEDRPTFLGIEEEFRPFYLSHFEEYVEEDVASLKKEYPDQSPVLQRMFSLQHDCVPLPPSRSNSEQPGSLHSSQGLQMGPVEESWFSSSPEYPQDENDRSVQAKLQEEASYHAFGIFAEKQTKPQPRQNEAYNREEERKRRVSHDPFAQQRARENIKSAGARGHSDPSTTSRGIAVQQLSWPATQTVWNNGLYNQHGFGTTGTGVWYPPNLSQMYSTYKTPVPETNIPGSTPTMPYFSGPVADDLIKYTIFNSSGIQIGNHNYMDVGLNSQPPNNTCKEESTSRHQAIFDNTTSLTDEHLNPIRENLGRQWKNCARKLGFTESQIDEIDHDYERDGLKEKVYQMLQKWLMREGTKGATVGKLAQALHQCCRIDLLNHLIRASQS",
  "test": "In vivo pharmacodynamics: RIPK1 levels in tissues",
  "set-up": "observed a 60% reduction in RIPK1 levels in tumors; from tissue; host or cells: tumors, spleen, lymph nodes, PBMCs, lungs, bone marrow of C57BL/6J mice; species or system C57BL/6J mice",
  "protocol": "Figure 4 LD4172 synergizes with Anti-PD1 to inhibit tumor growth. A, Plasma concentrations of LD4172 in C57BL/6J mice administered 1 mg/kg intravenously (i.v.) or 10 mg/kg intraperitoneally (i.p.) (n=4). B, Representative immunoblots of RIPK1 in different tissues of C57BL/6J mice treated with LD4172 (n=3–4). C, Densitometric analysis of RIPK1 protein levels in different tissues (n=3 or 4). D, Representative immunoblots of RIPK1 levels of B16F10 cells transduced with gRNA specific for RIPK1 or non-targetable control (sgNC). E, B16F10-RIPK1-KO tumors sensitized to anti-PD1 treatment: 3×10^5 B16F10 cells transduced with gRNA specific for RIPK1 or non-targetable control (sgNC) were inoculated into C57BL/6J mice. After seven days, mice with measurable tumors (~100 mm3) were randomly treated with or without anti-PD1 in vivo (100 μg per dose, i.p., every three days, n=8). F, Tumor growth curve of mice with B16F10 tumors treated with LD4172 and/or anti-PD1 (n=8). C57B6/J mice were subcutaneously inoculated with 3×10^5 B16F10 tumor cells. After seven days (tumor size ~ 100 mm3), mice were treated every three days with anti- PD1 (100 μg per dose, i.p.), daily with LD4172 (20 mg/kg, i.p.), a combination of LD4172 and anti-PD1 (same dose as their individual doses), or their corresponding vehicle control. G, Kaplan-Meier survival curve for all experimental groups. H, Final tumor weight (g) from F after 22d of treatment (n=8). I, Representative images of B16F10 tumors collected at the end of treatment. J, Mouse body weight (n=8). K, Tumor growth curve of mice with B16F10 tumors treated with T2I and/or anti-PD1 (n=8). The experimental conditions and treatment regimens were the same as F except using the RIPK1 kinase inhibitor T2I (20 mg/kg, i.p.) to replace LD4172. Representative data from at least three independent experiments are shown. Data are expressed as the mean ± SEM. * p<0.05; ** p<0.01; *** p<0.001, **** p<0.0001, respectively. ns, indicates no statistical significance.\nTo investigate the pharmacodynamics of LD4172 in vivo, we administered LD4172 via the i.p. route and observed a 60% reduction in RIPK1 levels in tumors (20 mg/kg, b.i.d., i.p.) (Fig. 4B–C).",
  "data": [
    {"smiles": "Cc1ncsc1-c1ccc([C@H](C)NC(=O)[C@@H]2C[C@@H](O)CN2C(=O)[C@@H](NC(=O)CCCCCCCCCCC(=O)NCCCn2cc(-c3ccc4c(c3)CCN4C(=O)Cc3cccc(OC(F)(F)F)c3)c3c(N)ncnc32)C(C)(C)C)cc1", "note": "[LD4172]", "values": [
      {"measurement": "reduction in RIPK1 levels in tumors", "setting": "20 mg/kg, b.i.d., i.p.", "value": 60, "unit": "%"},
      {"measurement": "RIPK1 degradation in lymph nodes, PBMCs, lungs, and bone marrow", "setting": "i.p.", "value": "no significant RIPK1 degradation"},
      {"measurement": "RIPK1 degradation in the spleen", "setting": "i.p.", "value": "less than 50%"},
      {"measurement": "RIPK1 degradation in tumors, intratumoral administration", "setting": "intratumoral vs i.p.", "value": "improved RIPK1 degradation in the tumors"}
    ]}
  ]
}
